{"source": "patent US7575889B2", "about": "“Compound combinations for inhibiting cell division and methods for their identification and use” (President and Fellows of Harvard College, priority 2001, dated 2009)", "key": {"[1]": {"target": "FtsZ GTPase activity (Escherichia coli, UniProt P0A9A6)", "sequence (P0A9A6 whole entry)": "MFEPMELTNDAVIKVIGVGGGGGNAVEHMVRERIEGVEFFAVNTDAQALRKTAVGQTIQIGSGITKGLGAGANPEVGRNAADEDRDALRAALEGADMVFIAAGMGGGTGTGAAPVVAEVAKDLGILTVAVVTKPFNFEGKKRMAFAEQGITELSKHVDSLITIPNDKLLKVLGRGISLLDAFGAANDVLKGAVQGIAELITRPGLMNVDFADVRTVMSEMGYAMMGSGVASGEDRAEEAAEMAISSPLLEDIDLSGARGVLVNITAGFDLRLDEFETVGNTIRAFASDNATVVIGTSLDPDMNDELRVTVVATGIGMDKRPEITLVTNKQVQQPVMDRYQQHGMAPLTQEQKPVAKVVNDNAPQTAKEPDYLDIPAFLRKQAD", "details": "at the concentrations tested"}, "[2]": {"system": "E. coli DRC39 (ΔacrAB::kan)", "details": "for MIC: E. coli DRC39 (ΔacrAB::kan), MIC99, broth dilution"}, "[3]": {"system": "E. coli strain DRC39", "assay": "Combination anti-bacterial treatment at sub-MIC concentrations, growth of DRC39", "format": "cell-based", "details": "for reduction of the MIC when combined with sub-MIC 26E-10: DRC39", "protocol": "Cell growth was assessed by visual inspection of cells incubated in culture tubes in this experiment and in the second, third, and fourth experiments described in this Example. In the fifth experiment growth was measured by reading optical density (OD600) using a multiwell plate reader. Cells were inoculated at a low concentration (1-2×10^5 cells/ml), such that the medium appeared clear."}, "[4]": {"target": "FtsZ protofilaments (Escherichia coli, UniProt P0A9A6)", "sequence (P0A9A6 whole entry)": "as above", "details": "for effect on FtsZ polymers (class of inhibitor): electron micrographs, FIGS. 13-15"}, "[5]": {"system": "gram-negative and gram-positive bacteria", "assay": "Antibacterial activity against gram-negative and gram-positive bacteria", "format": "cell-based", "protocol": "FIG. 19 is a table illustrating the minimum inhibitory concentrations of FtsZ GTPase inhibitory compounds identified in vitro. The compounds were tested against a variety of gram-negative and gram-positive bacteria."}, "[6]": {"target": "M. tuberculosis FtzZ (FtsZMt) GTPase (Mycobacterium tuberculosis, UniProt P9WN95)", "sequence (P9WN95 whole entry)": "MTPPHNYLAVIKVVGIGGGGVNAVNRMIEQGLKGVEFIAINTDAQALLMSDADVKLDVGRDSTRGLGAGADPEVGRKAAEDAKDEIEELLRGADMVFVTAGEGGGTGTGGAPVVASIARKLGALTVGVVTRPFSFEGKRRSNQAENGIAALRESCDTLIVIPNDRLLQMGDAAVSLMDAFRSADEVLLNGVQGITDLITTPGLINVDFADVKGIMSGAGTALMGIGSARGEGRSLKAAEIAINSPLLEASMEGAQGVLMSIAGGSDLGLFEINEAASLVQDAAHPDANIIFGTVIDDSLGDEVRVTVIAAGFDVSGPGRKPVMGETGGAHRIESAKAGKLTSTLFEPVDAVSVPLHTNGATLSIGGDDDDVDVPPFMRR", "assay": "Malachite green-phosphomolybdate assay of FtsZ GTPase activity (M. tuberculosis FtsZ)", "format": "biochemical", "details": "5 min preincubation at 30° C., 1 mM GTP, averages from three determinations"}, "[7]": {"system": "B. cereus", "assay": "Killing of B. cereus", "format": "cell-based"}, "[8]": {"system": "E. coli DRC40 (DRC39 ftsZ84)", "assay": "MIC and growth/phenotype, E. coli DRC40"}, "[9]": {"system": "E. coli MC1000 (wild-type)", "assay": "MIC, broth dilution, E. coli MC1000", "details": "MIC99, broth dilution"}, "[10]": {"system": "E. coli DRC42 (DRC39 recA::cat)", "assay": "MIC, E. coli DRC42"}, "[11]": {"system": "Clostridium perfringens", "format": "cell-based"}, "[12]": {"system": "FtsZ ring assembly in E. coli DRC39 cells", "assay": "FtsZ ring assembly in vivo (FtsZ-GFP fluorescence microscopy) in DRC39 cells", "format": "cell-based"}, "[13]": {"system": "DRC40/pBR-ftsZ+ cells", "assay": "MIC and growth/phenotype, DRC40 with wild-type ftsZ in trans", "format": "cell-based, E. coli"}}, "note": "Read-outs that look alike come from different tables or passages of the source.", "data": [{"smiles": "CCN1C(=Cc2ccc3ccccc3[n+]2CC)C=Cc2ccccc21.[Cl-]", "note": "[3G-09]", "values": [{"measurement": "effect on FtsZ GTPase activity in vitro", "setting": "[1]", "result": "apparently do not affect FtsZ GTPase activity"}, {"measurement": "MIC", "setting": "[2]", "result": 6, "unit": "µM"}, {"measurement": "amount of growth relative to the absence of compound", "setting": "[3]; alone, 0.375 μM, OD600", "result": 92, "unit": "%"}, {"measurement": "growth inhibition", "setting": "[3]; alone, 0.375 μM, OD600", "result": 8, "unit": "%"}]}, {"smiles": "CCN1C(=Cc2ccc3c4ccccc4ccc3[n+]2CC)C=Cc2ccccc21.Cc1ccc(S(=O)(=O)[O-])cc1", "note": "[7N-12]", "values": [{"measurement": "effect on FtsZ GTPase activity in vitro", "setting": "[1]", "result": "inhibit FtsZ GTPase activity"}, {"measurement": "amount of growth relative to the absence of compound", "setting": "[3]; individually, 0.3 μM", "result": 98, "unit": "%"}, {"measurement": "growth inhibition", "setting": "[3]; individually, 0.3 μM", "result": 2, "unit": "%"}]}, {"smiles": "CCN(CC)CCNc1nc(C=Cc2ccc(Cl)cc2)nc2cc3ccccc3cc12", "note": "[16L-09]", "values": [{"measurement": "effect on FtsZ GTPase activity in vitro", "setting": "[1]", "result": "inhibit FtsZ GTPase activity"}, {"measurement": "effect on FtsZ GTPase activity in vitro", "setting": "[1]; listed as 16-L09", "result": "reproducibly and robustly inhibited FtsZ GTPase activity"}, {"measurement": "effect on FtsZ polymers (class of inhibitor)", "setting": "[4]", "result": "cause bundling of FtsZ protofilaments"}, {"measurement": "MIC", "setting": "[2]", "result": 10, "unit": "µM"}, {"measurement": "reduction of the MIC when combined with sub-MIC 26E-10", "setting": "[3]", "result": 4, "unit": "fold"}]}, {"smiles": "C=CCOc1c(Br)cc(S(=O)(=O)c2cc(Br)c(O)c(Br)c2)cc1Br", "note": "[18M-04]", "values": [{"measurement": "activity against gram positive and gram negative bacteria", "setting": "[5]", "result": "kills gram positives"}, {"measurement": "effect on FtsZ GTPase activity in vitro", "setting": "[1]", "result": "reproducibly and robustly inhibited FtsZ GTPase activity"}, {"measurement": "effect on FtsZ protofilament assembly in vitro", "setting": "[4]", "result": "destabilizers of FtsZ protofilament assembly"}, {"measurement": "effect on FtsZ polymers (class of inhibitor)", "setting": "[4]", "result": "dose dependent destabilizing effect on the polymers"}, {"measurement": "IC50", "setting": "[6]", "result": "> 100", "unit": "µM"}]}, {"smiles": "CC[n+]1ccc(/C=C/N(C)c2ccccc2)c2ccccc21.[I-]", "note": "[26E-10]", "values": [{"measurement": "killing of B. cereus", "setting": "[7]", "result": "efficiently killed"}, {"measurement": "growth and morphology", "setting": "[2]; DRC39, 5 μM, 30° C.", "result": "mixture of filaments of varying lengths and short cells present at a low density"}, {"measurement": "MIC", "setting": "[2]", "result": 10, "unit": "µM"}, {"measurement": "growth", "setting": "[8]; DRC40/pBR322, 5 μM, 30° C.", "result": "absolutely no growth"}, {"measurement": "MIC", "setting": "[8]; E. coli DRC40 (DRC39 ftsZ84), slight turbidity believed to be unlysed filaments", "result": 2.5, "unit": "µM"}, {"measurement": "amount of growth relative to the absence of compound", "setting": "[3]; singly, 5 μM, OD600", "result": 41, "unit": "%"}, {"measurement": "growth inhibition", "setting": "[3]; singly, 5 μM, OD600", "result": 59, "unit": "%"}, {"measurement": "MIC", "setting": "[9]", "result": ">40", "unit": "µM"}, {"measurement": "MIC", "setting": "[10]", "result": 10, "unit": "µM"}, {"measurement": "phenotype and growth", "setting": "[11]; 80 μM, anaerobic conditions", "result": "filamentation phenotype in the presence of 80 μM 26E-10 without any overt effect on cell growth"}, {"measurement": "phenotype", "setting": "[11]; Clostridium perfringens", "result": "filaments"}, {"measurement": "cell length (filamentation)", "setting": "[12]; 10 μM (MIC), DRC39, within 60 min of treatment", "result": "~4", "unit": "×"}, {"measurement": "Z-rings in elongated cells", "setting": "[12]; 10 μM, DRC39, 60 min", "result": "markedly reduced in number and diminished in intensity"}, {"measurement": "Z-rings after 90 min treatment", "setting": "[12]; DRC39, 90 min", "result": "most of the cells were devoid of distinct Z-rings"}, {"measurement": "cell density and filamentation versus DRC40/pBR322", "setting": "[13]; DRC40/pBR-ftsZ+, 5 μM", "result": "higher cell density and less pronounced filamentation"}, {"measurement": "MIC", "setting": "[13]; DRC40 with wild-type ftsZ provided in trans (pBR-ftsZ+)", "result": 10, "unit": "µM"}]}, {"smiles": "Oc1ccc(Cl)cc1Cc1cc(Cl)cc(Cc2cc(Cl)ccc2O)c1O", "note": "[27D-12]", "values": [{"measurement": "activity against gram positive and gram negative bacteria", "setting": "[5]", "result": "effective against gram positive bacteria at very low concentrations and also kills gram negative species"}, {"measurement": "effect on FtsZ GTPase activity in vitro", "setting": "[1]", "result": "inhibit FtsZ GTPase activity"}, {"measurement": "effect on FtsZ GTPase activity in vitro", "setting": "[1]; listed as 27-D12", "result": "reproducibly and robustly inhibited FtsZ GTPase activity"}, {"measurement": "effect on FtsZ polymers (class of inhibitor)", "setting": "[4]", "result": "dose dependent destabilizing effect on the polymers"}, {"measurement": "MIC", "setting": "[2]", "result": 20, "unit": "µM"}]}, {"smiles": "CC[n+]1c(/C=C/N(C)c2ccccc2)n(-c2ccccc2)c2ccc(-c3nc4ccccc4s3)cc21", "note": "[27F-02]", "values": [{"measurement": "effect on FtsZ GTPase activity in vitro", "setting": "[1]", "result": "inhibit FtsZ GTPase activity"}, {"measurement": "effect on FtsZ GTPase activity in vitro", "setting": "[1]; listed as 27-F02", "result": "reproducibly and robustly inhibited FtsZ GTPase activity"}, {"measurement": "effect on FtsZ protofilament assembly in vitro", "setting": "[4]", "result": "destabilizers of FtsZ protofilament assembly"}, {"measurement": "effect on FtsZ polymers (class of inhibitor)", "setting": "[4]", "result": "cause bundling of FtsZ protofilaments"}, {"measurement": "MIC", "setting": "[2]", "result": 5, "unit": "µM"}, {"measurement": "reduction of the MIC when combined with sub-MIC 26E-10", "setting": "[3]", "result": 5, "unit": "fold"}, {"measurement": "IC50", "setting": "[6]", "result": 70, "unit": "µM"}]}, {"smiles": "Nc1c(C=Cc2cc3cc(C4=NCCN4)ccc3o2)[nH]c2cc(C3=NCCN3)ccc12", "note": "[58P-18]", "values": [{"measurement": "effect on FtsZ GTPase activity in vitro", "setting": "[1]", "result": "inhibit FtsZ GTPase activity"}, {"measurement": "effect on FtsZ GTPase activity in vitro", "setting": "[1]; listed as 58-P18", "result": "reproducibly and robustly inhibited FtsZ GTPase activity"}, {"measurement": "effect on FtsZ polymers (class of inhibitor)", "setting": "[4]", "result": "cause bundling of FtsZ protofilaments"}, {"measurement": "MIC", "setting": "[2]", "result": 80, "unit": "µM"}, {"measurement": "reduction of the MIC when combined with sub-MIC 26E-10", "setting": "[3]", "result": "≥ 2", "unit": "fold"}, {"measurement": "FtsZ ring in treated cells", "setting": "[12]; 40 μM, DRC39 cells", "result": "none of the treated cells appear to contain a medial FtsZ ring"}, {"measurement": "time to start of cell elongation", "setting": "[12]; 40 μM, DRC39 cells", "result": "≤ 60", "unit": "min"}]}]}
